Read-outs that look alike come from different tables or passages of the source.
Columns and labels:
[1] = test system: B/Victoria-lineage viruses; assay type: cell-based
[2] = test system: neuraminidase (NA) of B/Victoria-lineage viruses; assay type: biochemical, influenza B/Victoria-lineage virus
[3] = test system: neuraminidase (NA) of B/Victoria-lineage viruses; details: cited from earlier work
[4] = test system: neuraminidase (NA) of A(H3N2) viruses; details: cited from earlier work

In the case of `COC(=O)OCOc1c2n(ccc1=O)N([C@@H]1c3ccccc3SCc3c1ccc(F)c3F)[C@@H]1COCCN1C2=O` [Baloxavir, baloxavir marboxil], the “EC50 fold-change compared to reference median EC50 values” [1] is reported as 3.09–7.93 fold.
For `CCOC(=O)C1=C[C@@H](OC(CC)CC)[C@H](NC(C)=O)[C@@H](N)C1` [Oseltamivir, oseltamivir], the “NAI inhibition phenotype (NI/RI/HRI)” value [2] was “RI (key: normal inhibition (NI) is a <5-fold increase in the NAI IC50; RI is a 5- to 50-fold increase; HRI is a >50-fold increase)”.
For `CC(=O)N[C@H]1[C@H]([C@H](O)[C@H](O)CO)OC(C(=O)O)=C[C@@H]1N=C(N)N` [Zanamivir, zanamivir], the “NAI inhibition phenotype (NI/RI/HRI)” value [3] is given as “NI/RI”, the “NAI inhibition phenotype (NI/RI/HRI)” value [4] is given as “NI/RI” and the “NAI inhibition phenotype (NI/RI/HRI)” value [2] is given as “RI (key: normal inhibition (NI) is a <5-fold increase in the NAI IC50; RI is a 5- to 50-fold increase; HRI is a >50-fold increase)”.
